Assay results taken from patent US20080312250A1, “Combination Comprising a Bcrp Inhibitor and 4- (4-Methylpiperazin-1-Ylmethyl)-N-[4-Methyl-3- (4-Pyridin-3-Yl) Pyrimidin-2-Ylamino) Phenyl] -Benzamide” (THE NETHERLANDS CANCER INSTITUTE, priority 2005, published 2008).

Columns and labels:
[1] = target: T1, Bcrp1 (Mus musculus, UniProt Q7TMS5); experiment: Effect of pantoprazole and elacridar on Bcrp1-mediated transport of Compound I in MDCKII transfected cells; type: in vitro ADME, murine; settings: 1 μM Compound I, zosuquidar 5 μM added for pantoprazole, data not shown
T1 construct: expressed in transfected cells; host or cells: MDCKII (Madin-Darby canine kidney strain II) cells, stably transfected
T1 sequence (Q7TMS5 1-657): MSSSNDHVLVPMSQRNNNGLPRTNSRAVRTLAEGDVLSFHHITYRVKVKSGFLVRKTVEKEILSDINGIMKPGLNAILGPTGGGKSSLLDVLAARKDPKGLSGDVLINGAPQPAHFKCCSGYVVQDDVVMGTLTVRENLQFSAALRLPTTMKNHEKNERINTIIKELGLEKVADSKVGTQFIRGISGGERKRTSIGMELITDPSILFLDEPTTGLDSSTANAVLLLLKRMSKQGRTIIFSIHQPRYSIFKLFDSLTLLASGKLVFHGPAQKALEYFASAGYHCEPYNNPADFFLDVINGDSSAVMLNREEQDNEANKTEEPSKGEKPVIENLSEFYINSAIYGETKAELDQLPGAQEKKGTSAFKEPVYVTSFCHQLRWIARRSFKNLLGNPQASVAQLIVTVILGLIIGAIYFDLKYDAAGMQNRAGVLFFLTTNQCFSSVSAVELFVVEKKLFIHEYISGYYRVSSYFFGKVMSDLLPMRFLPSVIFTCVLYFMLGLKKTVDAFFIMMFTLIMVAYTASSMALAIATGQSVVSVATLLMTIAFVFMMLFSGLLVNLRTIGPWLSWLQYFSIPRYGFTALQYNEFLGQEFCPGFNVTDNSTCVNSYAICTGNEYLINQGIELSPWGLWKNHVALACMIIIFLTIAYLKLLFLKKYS
Description: Transport across MDCKII monolayers. The MDCKII (Madin-Darby canine kidney strain II) cells are cultured in Dulbecco's Modified Eagle's Medium supplemented with 10% fetal calf serum and 100 units penicillin/streptomycin per ml. Cells are grown at 37° C. with 5% CO2 under humidifying conditions. […] Animals. […] Mice are housed and handled according to institutional guidelines complying with Dutch legislation.
In the experiments in which the effect of pantoprazole is studied, the P-gp inhibitor zosuquidar (5 μM) is added to exclude any contribution of P-gp.

[2] = system: P-gp; settings: single dose of elacridar; approximately; cited from earlier work
[3] = target: T2, murine Bcrp1 (Mus musculus, UniProt Q7TMS5); experiment: Transport of Compound I across MDCKII-Bcrp1 monolayers; type: in vitro ADME
T2 construct: expressed in transfected cells; host or cells: MDCKII (Madin-Darby canine kidney strain II) cells, stably transfected
T2 sequence (Q7TMS5 1-657): T1 sequence (Q7TMS5 1-657)
Description: Transport across MDCKII monolayers. […] Animals.
Transport of Compound I across MDCKII monolayers. […] To exclude any contribution of P-gp (12), the P-gp inhibitor zosuquidar (5 μM) is added (18).

COc1cc2c(cc1OC)CN(CCc1ccc(NC(=O)c3cccc4c(=O)c5cccc(OC)c5[nH]c34)cc1)CC2 [elacridar]
effect on Bcrp1-mediated transport of Compound I [1]: inhibit
P-gp inhibition [2]: 70-80%

Cc1ccc(NC(=O)c2ccc(CN3CCN(C)CC3)cc2)cc1Nc1nccc(-c2cccnc2)n1 [Compound I]
net active transport of Compound I by Bcrp1 ([3]; 1 and 10 μM Compound I, MDCKII-Bcrp1 and parental cells, P-gp inhibitor zosuquidar 5 μM added): approximately 20 % per h
concentration above which Bcrp1 transport of Compound I is saturable ([3]; MDCKII-Bcrp1, zosuquidar 5 μM added): above 10 μM
